The target of this experiment is T1, Protease-activated receptor 1 (PAR1) (Homo sapiens, UniProt P25116).
T1 construct: gene F2R; PAR1 purified from 293-PAR1 cell lines
T1 sequence (P25116 42-425): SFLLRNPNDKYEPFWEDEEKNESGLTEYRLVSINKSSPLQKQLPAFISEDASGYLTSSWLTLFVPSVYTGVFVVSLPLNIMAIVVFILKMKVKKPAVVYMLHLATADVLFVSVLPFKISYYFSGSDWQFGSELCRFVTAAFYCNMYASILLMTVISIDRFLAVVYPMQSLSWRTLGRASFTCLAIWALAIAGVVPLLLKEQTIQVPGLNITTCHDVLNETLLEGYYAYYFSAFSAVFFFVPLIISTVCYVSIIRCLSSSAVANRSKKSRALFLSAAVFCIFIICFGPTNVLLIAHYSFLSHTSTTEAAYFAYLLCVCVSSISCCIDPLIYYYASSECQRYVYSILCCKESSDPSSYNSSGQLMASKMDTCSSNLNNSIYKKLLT
In words: SPR (Biacore […], PAR1 immobilized on CM5 chip). Format: binding.

Regarding `C[C@H]1c2cccc(O)c2C(=O)C2=C(O)[C@]3(O)C(=O)C(C(N)=O)=C(O)[C@@H](N(C)C)[C@@H]3[C@@H](O)[C@@H]21` [Doxycycline], the Kd (commonly the concentration at which binding is half-saturated) worked out at 23 µM.

(Values after publication PMC5370004, “Doxycycline directly targets PAR1 to suppress tumor progression” (Oncotarget, 2017).)
